Test in all cases: NCI-60 cell line screen, 48 h
For assay [1], the system named is DMS 114 small cell lung.
The test system of assay [2] is HL-60(TB) leukemia.
Assay [3] has as its system SNB-78 CNS.
Assay [4] has as its system SW-620 colon.
For assay [5], the system named is DLD-1 colon.
Assay [6] relates to LXFL 529 NSCLC.
Assay [7] concerns M19-MEL melanoma.
Assay [8] relates to KM20L2 colon.
Assay [9] relates to XF 498 CNS.
Assay [10] deals with DMS 273 small cell lung.
Assay [11] relates to T-47D breast.
Assay [12] deals with BT-549 breast.
For assay [13], the system named is NCI/ADR-RES ovarian.
For assay [14], the system named is HOP-18 NSCLC.

Where “and” joins values, the source holds several entries; their conditions need not be identical. Identical values can stand only once.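 Five concentrations, 48 hours, 96-well plates. The concentration for 50% growth inhibition is given as GI50. TGI: total growth inhibition.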

17 molecules from PubChem BioAssay (NCI) can be followed below.

On to `O=c1[nH]c2ccc([N+](=O)[O-])cc2nc1/C(=N/Nc1ccccc1)C(O)c1ccco1` (stereo unspecified), for which the TGI in assay [1], in assay [2], in assay [3], in assay [4], in [5] and in assay [6] was greater than 100 µM throughout. In addition, the TGI in assay [7], in [8], in [9] and in assay [10] was greater than 100 µM each time.

`CC(=O)N1c2cc(N=NN(C)C)ccc2NC(=O)CC1C` (stereo unspecified): the TGI in assay [11], in assay [2], in assay [4], in [12] and in assay [13] was greater than 100 µM in each case.

In the case of `CN(C)C(=O)Oc1ccc(C(=S)Nc2ccccc2)cc1`, the TGI in [11] is greater than 100 µM; in assay [2], 84.9 µM; in [4], greater than 100 µM; in [12], 79.7 µM; in [13], 91.8 µM.

Turning to `CC(C)=CCc1c2c(c(O)c3c(=O)c4c(oc13)-c1ccc(O)cc1OC4C=C(C)C)C=CC(C)(C)O2` (stereo unspecified), the TGI in assay [11] was found to be 23 µM; in assay [2] it was 31.7 µM; in assay [4] it was 23.5 µM; in [12], 28.1 µM; in [13], 34.6 µM.

As to `CCC1CN2CCc3c([nH]c4ccccc34)[C@@](C(=O)OC)(c3cc4c(cc3OC)N(C)C3C(O)(C(=O)OC)C(C(=O)OC)C5(CC)C=CCN6CCC43C65)C[C@@H](C2)[C@@H]1C(C)(C)C` (stereo partly specified), the TGI is greater than 10 µM in [11]; 1.23 µM in assay [2]; greater than 10 µM in assay [4]; greater than 8.68 µM in assay [12]; greater than 7.23 µM in [13].

Regarding `O=C(O)/C=C/c1ccncc1`, the TGI in [1], in assay [2], in [3], in [4], in assay [5] and in assay [6] was greater than 100 µM in each case. For the same molecule, the TGI in [7], in assay [8], in [9] and in assay [10] was greater than 100 µM throughout.

Turning to `CC1CCCN1CCCOC(=O)c1ccc(OC2C=CCCC2)cc1` (stereo unspecified), the TGI in assay [11] is 34.4 µM; in [2] it was 35.6 µM; in [4], 46.4 µM; in assay [12], greater than 100 µM; in [13], greater than 100 µM.

As to `O=C(c1ccccc1)c1cc(Cl)ccc1NCn1nnc2ccccc21`, the TGI in assay [1] is greater than 100 µM; in [2], 88.8 µM; in assay [4], greater than 100 µM; in [5], greater than 100 µM; in assay [6], greater than 100 µM; in assay [14], greater than 100 µM. Moreover, the TGI in assay [7], in [8], in [9] and in assay [10] was greater than 100 µM in each case.

Turning to `O=S(=O)(O)c1cc(O)c(N=Nc2ccc3ccccc3c2O)c2ccccc12`, the TGI in [11] is 84.6 µM; in assay [2], greater than 100 µM; in [4], greater than 100 µM; in assay [12] it was greater than 100 µM; in assay [13], 46.7 µM.

Consider `Cc1cc(C)n2c(nc3ccccc32)c1C#N`, for which the TGI in assay [11], in assay [2], in assay [4], in [12] and in assay [13] was greater than 100 µM throughout.

For the molecule `CC[C@]1(Cc2ccc(OC)c(OC)c2)C=[N+]([O-])O[C@H](OC2CCCC2(c2ccccc2)c2ccccc2)[C@@H]1OC(=O)C(C)(C)C` (stereo partly specified), the TGI is 7.04 µM in [11]; 8.1 µM in assay [2]; greater than 100 µM in assay [4]; greater than 44.5 µM in assay [12]; 5.58 µM in [13].

As to `Clc1cc2ncn(C3CCCCO3)c2cc1Cl` (stereo unspecified), the TGI in assay [11] is greater than 100 µM; in assay [2], greater than 100 µM; in assay [4], greater than 100 µM; in [12], 84.5 µM; in assay [13], greater than 100 µM.

For `CCOC(=O)c1cn(CC)c2ccc3c(c2c1=O)S(=O)(=O)C=C3`, the TGI in [11], in [2], in [4], in assay [12] and in assay [13] was greater than 100 µM throughout.

With `COc1cc2c(cc1OC)C(=O)/C(=C/c1ccc(N(C)C)cc1)CC2`, the TGI in [11], in assay [2], in [4], in assay [12] and in [13] was greater than 10 µM each time.

Regarding `CC[C@@]1(O)C(=O)OCc2c1cc1n(c2=O)Cc2c-1nc1ccccc1c2C=Nc1ccccc1N[C@@H]1c2cc3c(cc2[C@@H](c2cc(OC)c(O)c(OC)c2)[C@H]2C(=O)OC[C@@H]21)OCO3`, the GI50 in assay [11] is 0.00836 µM; in [2], 0.0325 µM and 0.192 µM; in assay [13], 0.0689 µM and 0.24 µM. In addition, the TGI is 0.163 µM in assay [11]; greater than 100 µM in assay [2]; greater than 100 µM in assay [4]; greater than 50 µM in assay [12]; 2.88 µM and 2.78 µM in assay [13].

In the case of `Cc1ccc(NCCN(C)C)c2c(=O)c3cc(O)ccc3sc12`, the TGI is 28.4 µM in [11]; 28 µM in [1]; 6.07 µM in assay [2]; 33.7 µM in assay [3]; 5.76 µM in assay [4]; 19.9 µM in assay [5]. Further, the TGI in assay [6] is 21.7 µM; in assay [14], 15.3 µM; in assay [7], 23.1 µM; in [12], 20.3 µM; in assay [8], 22 µM; in [9], 17.2 µM. The TGI in assay [10] amounted to 15.9 µM.

Consider `C(=C\c1c2oc(-c3ccccc3)cc(-c3ccccc3)c-2c2ccccc12)/C=C1\c2ccccc2-c2c(-c3ccccc3)cc(-c3ccccc3)[o+]c21`, for which the TGI in [1], in [2], in [3], in [4], in assay [5] and in assay [6] was greater than 100 µM throughout. In addition, the TGI in [7], in assay [8], in assay [9] and in assay [10] was greater than 100 µM in each case.
